According to US20220105135A1, “METHODS AND COMPOSITIONS FOR THE MODULATION OF OPIOID SIGNALING IN THE TUMOR MICROENVIRONMENT” (The Broad Institute, Inc., priority 2020, published 2022):

Legend:
[1] = biological target: aminopeptidase B (Homo sapiens, UniProt Q9H4A4); conditions: cited from earlier work
[2] = tested on: leucine aminopeptidase; conditions: cited from earlier work
[3] = biological target: aminopeptidase A (Homo sapiens, UniProt Q07075); conditions: cited from earlier work
[4] = biological target: trypsin (Homo sapiens, UniProt P07477); conditions: cited from earlier work
[5] = biological target: chymotrypsin (Bos taurus, UniProt P00766); conditions: cited from earlier work
[6] = tested on: elastase; conditions: cited from earlier work
[7] = biological target: T1, papain (Carica papaya, UniProt P00784); conditions: cited from earlier work
T1 sequence (P00784 134-345): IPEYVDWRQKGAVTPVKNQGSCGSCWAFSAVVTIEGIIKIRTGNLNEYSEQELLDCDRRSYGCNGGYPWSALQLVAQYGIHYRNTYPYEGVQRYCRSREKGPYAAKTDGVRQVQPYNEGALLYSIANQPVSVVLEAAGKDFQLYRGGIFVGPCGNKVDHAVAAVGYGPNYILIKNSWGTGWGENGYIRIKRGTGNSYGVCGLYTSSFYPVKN

[8] = biological target: pepsin (Homo sapiens, UniProt P0DJD8); conditions: cited from earlier work
Sequence of pepsin (P0DJD8 63-388): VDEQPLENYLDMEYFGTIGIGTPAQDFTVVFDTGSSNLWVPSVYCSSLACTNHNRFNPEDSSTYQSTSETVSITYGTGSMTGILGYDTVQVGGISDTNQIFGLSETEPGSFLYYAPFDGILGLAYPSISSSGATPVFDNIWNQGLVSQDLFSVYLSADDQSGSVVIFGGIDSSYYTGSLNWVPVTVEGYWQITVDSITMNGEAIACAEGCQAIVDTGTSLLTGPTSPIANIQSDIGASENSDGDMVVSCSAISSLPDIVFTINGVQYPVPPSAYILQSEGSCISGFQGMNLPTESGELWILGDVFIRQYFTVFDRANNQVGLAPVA

[9] = biological target: T2, thermolysin (Bacillus thermoproteolyticus, UniProt P00800); conditions: cited from earlier work
T2 sequence (P00800 233-548): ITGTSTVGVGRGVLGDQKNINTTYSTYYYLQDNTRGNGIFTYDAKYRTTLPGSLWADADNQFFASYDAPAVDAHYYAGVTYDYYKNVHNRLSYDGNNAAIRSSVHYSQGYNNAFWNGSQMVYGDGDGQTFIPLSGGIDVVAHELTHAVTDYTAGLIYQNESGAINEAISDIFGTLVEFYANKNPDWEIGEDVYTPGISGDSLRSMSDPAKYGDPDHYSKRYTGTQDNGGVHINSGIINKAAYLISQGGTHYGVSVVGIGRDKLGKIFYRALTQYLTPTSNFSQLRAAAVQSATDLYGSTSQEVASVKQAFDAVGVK

[10] = tested on: bacteria; parameters: dose or concentration left out as unconfirmed; conditions: cited from earlier work
[11] = tested on: fungi; conditions: at 100 pg/ml; cited from earlier work
[12] = intraperitoneal injection of 300 mg/kg to mice; cited from earlier work
[13] = tested on: CD8+ T cells; test: In vitro stimulation of CD8+ T cells with MENK peptide; type: cell-based; conditions: for coinhibitory receptors / checkpoints expression on T cells: MENK stimulation
Excerpt: FIG. 55A. […] FIG. 55B. […] FIG. 55C. […] FIG. 55D.
Applicants determined the effect of PENK-OGFR signaling on tumor growth and anti-tumor immunity.

[14] = MENK vs control, in vitro, listed as Menk

Sequence of aminopeptidase B (Q9H4A4 whole entry, species assumed): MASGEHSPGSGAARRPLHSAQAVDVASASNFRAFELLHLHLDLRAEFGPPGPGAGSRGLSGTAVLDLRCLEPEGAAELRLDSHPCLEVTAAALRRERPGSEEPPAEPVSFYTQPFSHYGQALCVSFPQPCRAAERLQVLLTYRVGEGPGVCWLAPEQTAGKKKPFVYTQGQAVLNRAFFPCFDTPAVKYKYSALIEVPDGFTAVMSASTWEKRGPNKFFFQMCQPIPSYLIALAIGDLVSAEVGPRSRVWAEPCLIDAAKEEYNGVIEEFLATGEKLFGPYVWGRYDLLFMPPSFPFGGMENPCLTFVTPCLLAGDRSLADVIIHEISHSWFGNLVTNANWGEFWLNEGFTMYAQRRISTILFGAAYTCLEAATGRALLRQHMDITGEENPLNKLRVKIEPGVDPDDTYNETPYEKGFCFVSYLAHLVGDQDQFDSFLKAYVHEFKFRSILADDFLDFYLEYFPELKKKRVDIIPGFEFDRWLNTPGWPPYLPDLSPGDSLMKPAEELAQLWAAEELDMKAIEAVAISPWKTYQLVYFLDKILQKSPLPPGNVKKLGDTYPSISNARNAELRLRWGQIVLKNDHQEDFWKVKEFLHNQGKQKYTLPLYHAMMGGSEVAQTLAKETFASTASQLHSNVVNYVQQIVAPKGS
Sequence of aminopeptidase A (Q07075 whole entry, species assumed): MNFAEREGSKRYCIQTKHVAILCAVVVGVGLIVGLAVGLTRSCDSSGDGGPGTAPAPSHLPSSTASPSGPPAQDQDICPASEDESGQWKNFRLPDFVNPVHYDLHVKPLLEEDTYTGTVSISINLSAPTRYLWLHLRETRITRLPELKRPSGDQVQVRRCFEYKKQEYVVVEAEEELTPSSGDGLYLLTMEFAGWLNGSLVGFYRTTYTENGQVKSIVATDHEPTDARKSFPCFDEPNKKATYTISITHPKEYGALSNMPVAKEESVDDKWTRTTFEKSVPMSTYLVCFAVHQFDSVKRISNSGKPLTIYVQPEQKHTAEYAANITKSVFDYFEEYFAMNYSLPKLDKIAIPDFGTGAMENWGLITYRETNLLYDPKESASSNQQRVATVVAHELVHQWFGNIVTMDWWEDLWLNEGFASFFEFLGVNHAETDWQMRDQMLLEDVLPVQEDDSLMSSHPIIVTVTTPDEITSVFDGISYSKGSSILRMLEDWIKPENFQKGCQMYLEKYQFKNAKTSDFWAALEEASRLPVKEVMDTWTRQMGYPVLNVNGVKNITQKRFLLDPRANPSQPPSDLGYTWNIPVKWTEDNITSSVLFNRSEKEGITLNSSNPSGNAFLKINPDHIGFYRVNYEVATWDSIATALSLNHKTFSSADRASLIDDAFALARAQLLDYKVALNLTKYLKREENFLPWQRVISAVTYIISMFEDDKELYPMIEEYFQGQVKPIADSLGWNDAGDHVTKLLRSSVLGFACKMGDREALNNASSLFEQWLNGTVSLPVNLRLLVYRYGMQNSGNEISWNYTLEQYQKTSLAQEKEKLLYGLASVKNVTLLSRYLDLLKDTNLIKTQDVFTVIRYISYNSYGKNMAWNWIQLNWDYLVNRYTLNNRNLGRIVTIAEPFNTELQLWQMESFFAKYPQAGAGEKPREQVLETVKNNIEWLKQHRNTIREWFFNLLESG

For `CC(C)C[C@H](NC(=O)[C@@H](O)[C@H](N)Cc1ccccc1)C(=O)O` [Bestatin, ubenimex (bestatin)], the “inhibition of aminopeptidase B” value [1] is given as “specific inhibitor”, the “inhibition of leucine aminopeptidase” value [2] is given as “specific inhibitor” and the “inhibition of aminopeptidase A” value [3] is given as “does not show any inhibition”. The inhibition of trypsin [4] was “does not show any inhibition”, the inhibition of chymotrypsin [5] was “does not show any inhibition” and the inhibition of elastase [6] was “does not show any inhibition”. For the same compound, the inhibition of papain [7] was “does not show any inhibition”, the inhibition of pepsin [8] was “does not show any inhibition” and the inhibition of thermolysin [9] was “does not show any inhibition”. For the same compound, the antibacterial activity [10] was “no antibacterial”, the antifungal activity [11] was “no antifungal” and the “toxicity (death)” value [12] was “no death”.
For “[Met]enkephalin (YGGFM) [MENK, enkephalin peptide produced by proteolytic cleavage of PENK]”, the “coinhibitory receptors / checkpoints expression on T cells” value [13] was “increases”, the “coinhibitory receptors / checkpoints expression on T cells” value ([13]; listed as Menk) was “increased expression of several checkpoints” and the CD160 ([13]; MENK vs control, in vitro) was “increased”. The IL-2 ([13]; MENK vs control, in vitro) was “decreased”, the PD1 ([13]; MENK vs control, in vitro) was “increased” and the “PD1+ TIM3+CD8+ T cells” value ([13]; MENK vs control, in vitro) was “increased”. For the same compound, the TIM3 ([13]; MENK vs control, in vitro) was “increased”, the proliferation ([13]; MENK vs control, in vitro) was “decreased” and the IL-2 [13, 14] was “dampened”. For the same compound, the proliferation [13, 14] was “some reduction”.
